Experimental data taken from PubChem BioAssay AID248 (DTP/NCI, 2004).
“And” between values parts separate entries of the source, which are not always exact repeats. Equal entries are not always repeated. Inconclusive results and toxic doses are left out. Rule as the data show it: active = T/C of 150% or more; inactive = T/C below 125%.

System: L1210 leukemia ip in BDF1 mice, survival T/C
Assay: NCI In Vivo Anticancer Drug Screen. Data for tumor model L1210 Leukemia (intraperitoneal) in B6D2F1 (BDF1) mice
Conditions: endpoint: mean survival time, higher = longer survival
In short: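 Tumor cells were implanted, animals were treated, and survival was followed. The result divides the treated measurement by the vehicle-control measurement.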

[1] = dose: 100.0 mg/kg/injection, schedule: Q01DX001 (ip), vehicle: Klucel (hydroxypropylcellulose) (HPC)
[2] = dose: 100.0 mg/kg/injection, schedule: Q04DX003 (ip), vehicle: saline with Tween-80
[3] = dose: 200.0 mg/kg/injection, schedule: Q01DX001 (ip), vehicle: Klucel (hydroxypropylcellulose) (HPC)
[4] = dose: 200.0 mg/kg/injection, schedule: Q04DX003 (ip), vehicle: saline with Tween-80
[5] = dose: 400.0 mg/kg/injection, schedule: Q04DX003 (ip), vehicle: saline with Tween-80
[6] = dose: 100.0 mg/kg/injection, schedule: Q01DX009 (ip), vehicle: saline with Tween-80
[7] = dose: 200.0 mg/kg/injection, schedule: Q01DX009 (ip), vehicle: saline with Tween-80
[8] = dose: 50.0 mg/kg/injection, schedule: Q01DX009 (ip), vehicle: Klucel (hydroxypropylcellulose) (HPC)
[9] = dose: 100.0 mg/kg/injection, schedule: Q01DX009 (ip), vehicle: Klucel (hydroxypropylcellulose) (HPC)
[10] = dose: 100.0 mg/kg/injection, schedule: Q04DX002 (ip), vehicle: Klucel (hydroxypropylcellulose) (HPC)
[11] = dose: 100.0 mg/kg/injection, schedule: Q01DX001 (ip), vehicle: saline
[12] = dose: 200.0 mg/kg/injection, schedule: Q01DX001 (ip), vehicle: saline
[13] = dose: 400.0 mg/kg/injection, schedule: Q01DX001 (ip), vehicle: saline
[14] = dose: 100.0 mg/kg/injection, schedule: Q04DX003 (ip), vehicle: Klucel (hydroxypropylcellulose) (HPC)
[15] = dose: 200.0 mg/kg/injection, schedule: Q04DX003 (ip), vehicle: Klucel (hydroxypropylcellulose) (HPC)
[16] = dose: 400.0 mg/kg/injection, schedule: Q04DX003 (ip), vehicle: Klucel (hydroxypropylcellulose) (HPC)
[17] = dose: 200.0 mg/kg/injection, schedule: Q01DX009 (ip), vehicle: Klucel (hydroxypropylcellulose) (HPC)
[18] = dose: 400.0 mg/kg/injection, schedule: Q01DX009 (ip), vehicle: Klucel (hydroxypropylcellulose) (HPC)
[19] = dose: 100.0 mg/kg/injection, schedule: Q04DX002 (ip), vehicle: saline with Tween-80
[20] = dose: 200.0 mg/kg/injection, schedule: Q04DX002 (ip), vehicle: saline with Tween-80
[21] = dose: 75.0 mg/kg/injection, schedule: Q01DX001 (ip), vehicle: saline
[22] = dose: 100.0 mg/kg/injection, schedule: Q01DX001 (ip), vehicle: carboxymethylcellulose (CMC)
[23] = dose: 200.0 mg/kg/injection, schedule: Q01DX001 (ip), vehicle: carboxymethylcellulose (CMC)
[24] = dose: 400.0 mg/kg/injection, schedule: Q01DX001 (ip), vehicle: carboxymethylcellulose (CMC)

Measured: T/C

O=C(Nc1cccc(C(F)(F)F)c1)Nc1cccc(C(F)(F)F)c1
inactive: [1] 94 % of control and 91 % of control | [2] 97 % of control and 87 % of control | [3] 98 % of control | [4] 99 % of control and 87 % of control | dose: 400.0 mg/kg/injection, schedule: Q01DX001 (ip), vehicle: Klucel (hydroxypropylcellulose) (HPC) 94 % of control | [5] 97 % of control and 89 % of control

CC(C)c1ccc(C(=O)O)cc1S(=O)(=O)F
inactive: [6] 95 % of control | [7] 98 % of control

FC(F)/C=C\c1ccccc1
inactive: dose: 75.0 mg/kg/injection, schedule: Q01DX001 (ip), vehicle: other 103 % of control | dose: 150.0 mg/kg/injection, schedule: Q01DX001 (ip), vehicle: other 105 % of control | dose: 300.0 mg/kg/injection, schedule: Q01DX001 (ip), vehicle: other 111 % of control

O=C1C=C(NCCc2cnc[nH]2)c2ccccc2C1=O
inactive: [8] 92 % of control | [9] 103 % of control

COC(=O)N1C(C)=CC=CC=C1C
inactive: dose: 12.5 mg/kg/injection, schedule: Q04DX002 (ip), vehicle: Klucel (hydroxypropylcellulose) (HPC) 94 % of control | dose: 25.0 mg/kg/injection, schedule: Q04DX002 (ip), vehicle: Klucel (hydroxypropylcellulose) (HPC) 88 % of control | dose: 50.0 mg/kg/injection, schedule: Q04DX002 (ip), vehicle: Klucel (hydroxypropylcellulose) (HPC) 98 % of control | [10] 100 % of control

Cc1sc2ccccc2[n+]1CCCCS(=O)(=O)O
inactive: [11] 92 % of control | [12] 97 % of control | [13] 97 % of control

CC(=O)CCCCc1ccccc1
inactive: [10] 88 % of control | dose: 200.0 mg/kg/injection, schedule: Q04DX002 (ip), vehicle: Klucel (hydroxypropylcellulose) (HPC) 102 % of control | dose: 400.0 mg/kg/injection, schedule: Q04DX002 (ip), vehicle: Klucel (hydroxypropylcellulose) (HPC) 88 % of control

CC1=CC(C)(C)NC(=S)N1c1ccc(C)cc1
inactive: [14] 104 % of control | [15] 93 % of control | [16] 91 % of control

O=C1OC(c2cccc([N+](=O)[O-])c2)=N/C1=C\c1cccc2ccccc12
inactive: [9] 94 % of control | dose: 100.0 mg/kg/injection, schedule: Q04DX002 (ip), vehicle: saline 96 % of control | [17] 105 % of control | dose: 200.0 mg/kg/injection, schedule: Q04DX002 (ip), vehicle: saline 101 % of control | [18] 97 % of control | dose: 400.0 mg/kg/injection, schedule: Q04DX002 (ip), vehicle: saline 94 % of control

c1cc[c]([Ge]([CH2][CH2][Sn]([c]2ccccc2)([c]2ccccc2)[c]2ccccc2)([CH2][CH2][Sn]([c]2ccccc2)([c]2ccccc2)[c]2ccccc2)[c]2ccccc2)cc1
inactive: [19] 98 % of control | [20] 102 % of control | dose: 400.0 mg/kg/injection, schedule: Q04DX002 (ip), vehicle: saline with Tween-80 94 % of control

CCSC(C(O)C(O)C(O)C(O)CO)n1cnc2c(=S)nc[nH]c21 (stereo not given)
inactive: [11] 105 % of control | dose: 100.0 mg/kg/injection, schedule: Q04DX003 (ip), vehicle: saline 96 % of control | [12] 105 % of control | dose: 200.0 mg/kg/injection, schedule: Q04DX003 (ip), vehicle: saline 100 % of control | [13] 103 % of control | dose: 400.0 mg/kg/injection, schedule: Q04DX003 (ip), vehicle: saline 96 % of control

O=C(CC(=O)Nc1ccc([N+](=O)[O-])cc1)Nc1ccc([N+](=O)[O-])cc1
inactive: [2] 87 % of control | [5] 92 % of control

c1ccc(N=Nc2ccnnc2)cc1
inactive: dose: 50.0 mg/kg/injection, schedule: Q04DX002 (ip), vehicle: saline with Tween-80 102 % of control | [19] 91 % of control | [20] 105 % of control

CC[C@@]1(O)C(=O)OCc2c1cc1n(c2=O)Cc2c-1nc1ccccc1c2Cl
inactive: [11] 117 % of control | [13] 88 % of control

CCCCCCCCC[n+]1cccc(C#N)c1
inactive: dose: 18.75 mg/kg/injection, schedule: Q01DX009 (ip), vehicle: saline 90 % of control | dose: 37.5 mg/kg/injection, schedule: Q01DX009 (ip), vehicle: saline 88 % of control | dose: 37.5 mg/kg/injection, schedule: Q04DX003 (ip), vehicle: acetone 100 % of control | [21] 100 % of control | dose: 75.0 mg/kg/injection, schedule: Q01DX009 (ip), vehicle: saline 90 % of control | dose: 75.0 mg/kg/injection, schedule: Q04DX003 (ip), vehicle: acetone 97 % of control | dose: 150.0 mg/kg/injection, schedule: Q01DX001 (ip), vehicle: saline 102 % of control | dose: 150.0 mg/kg/injection, schedule: Q04DX003 (ip), vehicle: acetone 105 % of control

c1ccc2oc(N3CCN(c4nc5ccccc5o4)CC3)nc2c1
inactive: [22] 102 % of control | [23] 91 % of control | [24] 88 % of control

Cc1c(C)c2c(c(C)c1O)CC(CO)CO2 (stereo not given)
inactive: dose: 100.0 mg/kg/injection, schedule: Q01DX001 (ip), vehicle: saline with Tween-80 92 % of control | dose: 200.0 mg/kg/injection, schedule: Q01DX001 (ip), vehicle: saline with Tween-80 101 % of control | dose: 400.0 mg/kg/injection, schedule: Q01DX001 (ip), vehicle: saline with Tween-80 87 % of control

CCP(CC)SC1OC(COC(C)=O)C(OC(C)=O)C(OC(C)=O)C1OC(C)=O (stereo not given)
inactive: dose: 50.0 mg/kg/injection, schedule: Q01DX001 (ip), vehicle: Klucel (hydroxypropylcellulose) (HPC) 102 % of control | [1] 101 % of control | [3] 98 % of control

O=C(NCCBr)c1cccc2ccccc12
inactive: [9] 106 % of control | [17] 97 % of control | [18] 95 % of control

C[As](C)Sc1ccnc(S[As](C)C)n1
inactive: [6] 102 % of control | [2] 96 % of control | [7] 107 % of control | [4] 96 % of control

CCOC(=O)c1cncc(C(=O)OCC)c1
inactive: [8] 100 % of control | [9] 100 % of control | [14] 101 % of control | [17] 104 % of control | [15] 92 % of control | [18] 112 % of control | [16] 100 % of control

NC(N)=NC(N)=Nc1ccc(Cl)c(Cl)c1
inactive: dose: 25.0 mg/kg/injection, schedule: Q01DX009 (ip), vehicle: Klucel (hydroxypropylcellulose) (HPC) 100 % of control | dose: 25.0 mg/kg/injection, schedule: Q01DX009 (ip), vehicle: saline 104 % of control | [8] 104 % of control | dose: 50.0 mg/kg/injection, schedule: Q01DX009 (ip), vehicle: saline 98 % of control | dose: 75.0 mg/kg/injection, schedule: Q01DX009 (ip), vehicle: Klucel (hydroxypropylcellulose) (HPC) 102 % of control | dose: 100.0 mg/kg/injection, schedule: Q01DX009 (ip), vehicle: saline 91 % of control | [2] 100 % of control

O=C(O)c1cccc([N+](=O)[O-])c1[N+](=O)[O-]
inactive: dose: 50.0 mg/kg/injection, schedule: Q04DX003 (ip), vehicle: Klucel (hydroxypropylcellulose) (HPC) 94 % of control | [22] 95 % of control | [14] 92 % of control | [23] 93 % of control | [15] 103 % of control | [24] 93 % of control | [16] 92 % of control

CCOC(=O)NNC(=O)CN
inactive: [21] 104 % of control

CN(C)C(=O)O/N=C(\c1ccccc1)C(F)(F)F
inactive: dose: 0.5 mg/kg/injection, schedule: Q01DX001 (ip), vehicle: saline 103 % of control | dose: 1.0 mg/kg/injection, schedule: Q01DX001 (ip), vehicle: saline 102 % of control | dose: 2.0 mg/kg/injection, schedule: Q01DX001 (ip), vehicle: saline 97 % of control

CCCCCCCNC(=S)NNC(=O)c1ccncc1
inactive: [9] 97 % of control | [17] 100 % of control | [18] 100 % of control
